# pEC50: −log10 of the molar value. Like-named read-outs stand apart in the source and are kept apart here.
# Assays:
# Format in all cases: cell-based
# RSV strain A2 = test: RSV HEp-2 EC50 (infectious cytopathic cell protection assay); conditions: HEp-2 cells, RSV A2, 4 days, read-out: RSV HEp-2 EC50
# In short: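 HEp-2 cells mixed with titered RSV A2 at 50,000 cells/ml were added to plates holding 3-fold serial compound dilutions in DMSO, then incubated 4 days at 37° C. Cytoprotection was read as cell viability by CellTiter-Glo luminescence and converted to percent inhibition against 0% and 100% inhibition controls.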
# HRV16 = HRV16 HELA EC50 (cytopathic effect in H1-HeLa cells)
# In short: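 H1-HeLa cells seeded one day before, given 3-fold serial compound dilutions in triplicate just prior to infection with pre-titrated virus. Incubated 96 h at 33 °C/5% CO2; protection from cytopathic effect read as viability by CellTiter-Glo luminescence, normalised to infected untreated (0%) and uninfected (100%) controls.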
# RSV A2 = test: RSV NHBE EC50 (RSV A2 antiviral assay in normal human bronchial epithelial cells); conditions: NHBE cells, RSV A2, 4 days, read-out: RSV NHBE EC50
# HRV14 = HRV14 HELA EC50 (cytopathic effect in H1-HeLa cells); conditions: 96 h, read-out: HRV14 HELA EC50
# Experimental: (§1) H1-HeLa cells, cultured in complete RPMI 1640 medium containing 10% heat-inactivated FBS and 1% Penicillin/Streptomycin, were seeded in 96 well plates at 5000 cells/well one day prior to compound dosing and infection. The antiviral activity of each compound was measured in triplicate. Compounds were added directly to the cell cultures in serial 3-fold dilutions using the HP300 digital dispenser (Hewlett Packard, Palo Alto, CA) immediately prior to infection. The plates were transferred to BSL-2 containment and 100 μL of 1/4000 dilution of HRV14 virus stock was added to each well containing cells and serially diluted compounds. Each plate included 6 wells of infected untreated cells and 6 wells of cells containing 5 μM Rupintrivir that served as 0% and 100% virus inhibition control, respectively. Following the infection, test plates were incubated for 96 h in a tissue culture incubator set to 37° C./5% CO2. Following incubation, the H1-HeLa cells were removed from incubation and allowed to equilibrate to 25° C. Cell viability was determined by removing 100 μL of culture medium and adding 100 μL of Cell-Titer Glo viability reagent. The mixtures were incubated on a shaker for 10 minutes at 25° C., and the luminescence signal was quantified on an Envision luminescence plate reader.
# HRV99 = HRV99 EC50
# HRV10 = HRV10 HELA EC50
# HRV1a = test: HRV1A HELA EC50 (cytopathic effect in H1-HeLa cells); conditions: 96 h, read-out: HRV1A HELA EC50
# Experimental: as §1, with “HRV1a” for “HRV14”
# RSV A strain A2 = test: RSV HAE EC50 (intracellular RSV RNA by real-time PCR in HAE cells); conditions: read-out: RSV HAE EC50
# Experimental: HAE cells are cultured at the air-liquid interface and have an apical side that is exposed to the air and a basal side that is in contact with the medium. Prior to experimentation, HAE were removed from their agar-based shipping packaging and were acclimated to 37° C./5% CO2 overnight in 1 ml of HAE Assay medium (AIR-100-MM, Mattek Corp). HAE were prepared for infection by washing the apical surface twice with 400 μL of PBS (either utilizing direct pipetting methods or by running each transwell through a trough containing PBS) to remove the mucus layer. Apical chambers were drained of PBS and tapped gently onto absorbent material to remove as much PBS as possible. After washing, the cells were transferred to fresh HAE maintenance media containing 4-fold serially diluted compound, delivered to the basal side of the cell monolayer, and apically infected with 100 μL of a 1:600 dilution of RSV A strain A2 1000× stock (ABI, Columbia, MD, cat #10-124-000) in HAE assay medium for 3 hours at 37° C. in 5% CO2. The virus inoculum was removed and the apical surface of the cells was washed 3 times with PBS using either method previously described. The cells were then cultured in the presence of compound for 3 days at 37° C. Following the incubation, total RNA was extracted from the HAE cells using a MagMAX-96 Viral RNA isolation kit (Applied Biosystems, Foster City, CA, Cat #AM1836) and intracellular RSV RNA was quantified by real-time PCR. Approximately 25 ng of purified RNA was added to a PCR reaction mixture that contained 0.9 μM RSV N Forward and RSV N Reverse primers, 0.2 μM RSV N Probe and 1×Taqman RNA-to-Ct 1-Step Kit (Applied Biosystems, Foster City, CA, Cat #4392938). RNA levels were normalized using a Tagman GAPDH control primer set (Applied Biosystems, Foster City, CA, Cat #402869). Real-Time PCR Primers and Probe Used in the RSV A2 HAE Antiviral Assay: […]
# [1] = test system: Dengue serotype 2 New Guinea C (NGC) strain; test: DENV-2 Huh-7 EC50 (qPCR in Huh7 cells)
# Experimental: Huh7 (Human hepatocarcinoma 7) cells were maintained in 10% FCS-containing DMEM complete media. On the day of the assay, cells were trypsinized (0.1% Trypsin-EDTA), washed and infected for 2 hours in serum-free DMEM with Dengue serotype 2 New Guinea C (NGC) strain at MOI=0.1 with gentle agitation at 37° C. After 2 hours, cells were washed with serum-free media and suspended in 10% FCS-containing DMEM (Gibco, supplemented with sodium pyruvate, NEAA, Penicillin-Streptomycin). 10^5 cells were plated in triplicate in 96-well plates with compounds dispensed at graded doses (Hewlett-Packard D300 Digital Dispenser). All wells were normalized to 0.25% DMSO. At 48 hours, cells were washed with 1×PBS and all supernatants removed. Total RNA was extracted using RNEasy 96 plates (Qiagen) and used to generate first-strand cDNA using XLT cDNA 5×Supermix (QuantaBio). cDNA was used as a template in a Taqman qPCR duplex reaction specific to DENV2 viral and GAPDH gene expression. EC50 values were determined using Prism Graphpad software, with normalization to a positive control and no compound negative control wells.
# DENV2 replicon = test: DENV-2 Huh-7 Rep EC50 (replicon luminescence); conditions: read-out: DENV-2 Huh-7 Rep EC50
# In short: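 Huh-7 cells carrying a DENV2 replicon, 5,000 cells/well, were incubated with dosed compounds for 48 h at 37° C. EnduRen live-cell substrate was added 1.5 h before luminescence reading. EC50 came from dose-response against DMSO-only wells.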
# [2] = test system: Dengue 2, New Guinea strain (NGC); test: DENV-2 moDC EC50 (qPCR in human monocyte-derived dendritic cells); conditions: moDCs
# Experimental: Human monocyte-derived dendritic cells (moDCs) were derived from CD14+ monocytes (AllCells) cultured in Human Mo-DC Differentiation medium containing GM-CSF and IL-4 (Miltenyi Biotec). On day 7, moDCs were harvested by mechanical disruption, washed and suspended in serum-free RPMI. moDCs were infected with Vero-derived Dengue 2, New Guinea strain (NGC) at a MOI=0.1 for two hours in serum-free RPMI with gentle agitation at 37° C. Cells were washed and resuspended in 10% serum-containing RPMI (Gibco, supplemented with sodium pyruvate, NEAA, Penicillin-Streptomycin). 10^5 cells were plated in triplicate in 96-well plates with compounds dispensed at graded doses (Hewlett-Packard D300 Digital Dispenser). All wells were normalized to 0.25% DMSO. At 48 hours, cells were washed with 1×PBS and all supernatants removed. Total RNA was extracted using RNEasy 96 plates (Qiagen) and used to generate first-strand cDNA using XLT cDNA 5× Supermix (QuantaBio). cDNA was used as a template in a Taqman qPCR duplex reaction specific to DENV2 viral and GAPDH gene expression. EC50 values were determined using Prism Graphpad software, with normalization to a positive control and no compound negative control wells.
# [3] = human respiratory syncytial virus, HEp-2, 96 h
# [4] = 96 h, H1-HeLa cells, 33° C., read-out: HRV16 HELA EC50
# [5] = human respiratory syncytial virus, NHBE, 96 h
# [6] = Dengue virus, DENV2, Huh-7, 48 h
# [7] = Dengue virus, DENV2, Dendritic cell, 48 h
# [8] = human respiratory syncytial virus, 96 h
# [9] = Dengue virus, DENV2, Huh-7, 48 h, Huh-7 replicon cells, 48 hours
smiles,measurement,setting,value
"C[C@H](NP(=O)(OC[C@@]1(C#N)O[C@@H](c2ccc3c(N)ncnn23)[C@H](O)[C@@H]1O)Oc1ccccc1)C(=O)OCC1CCC1 (mixture of isomers) [Example 2, (2S)-cyclobutylmethyl 2-(((((2R,3S,4R,5S)-5-(4-aminopyrrolo[2,1-f][1,2,4]triazin-7-yl)-2-cyano-3,4-dihydroxytetrahydrofuran-2-yl)methoxy)(phenoxy)phosphoryl)amino)propanoate]",pEC50,RSV strain A2; [3],7.25
same,pEC50,HRV16; [4],6.45
same,pEC50,RSV A2; [5],6.91
same,pEC50,HRV14,6.47
same,pEC50,HRV99,6.15
same,pEC50,HRV10,6.94
same,pEC50,HRV1a,6.97
"C[C@H](NP(=O)(OC[C@@]1(C#N)O[C@@H](c2ccc3c(N)ncnn23)[C@H](O)[C@@H]1O)Oc1ccccc1)C(=O)OC1CCCCCCC1 (single isomer, unassigned) [Example 173]",pEC50,RSV strain A2,6.81
same,pEC50,"RSV A strain A2; human respiratory syncytial virus, HAE, 72 h",7.66
same,pEC50,RSV A2,6.55
same,pEC50,[1]; [6],5.92
"CCC(C)(C)COC(=O)[C@H](C)NP(=O)(OC[C@@]1(C#N)O[C@@H](c2ccc3c(N)ncnn23)[C@H](O)[C@@H]1O)Oc1ccccc1 (single isomer, unassigned) [Example 255]",pEC50,RSV strain A2,7.74
same,pEC50,RSV A2,7.37
same,pEC50,[1]; 48 hours,6.08
same,pEC50,"DENV2 replicon; Huh-7 replicon cells, 48 hours",5.31
same,pEC50,[2]; [7],7.07
"CCC(C)(C)COC(=O)[C@H](C)NP(=O)(OC[C@@]1(C#N)O[C@@H](c2ccc3c(N)ncnn23)[C@H](O)[C@@H]1O)Oc1ccccc1 (single isomer, unassigned) [Example 256]",pEC50,RSV strain A2,7.27
same,pEC50,RSV A2,6.37
same,pEC50,[1]; 48 hours,< 4.74
same,pEC50,"DENV2 replicon; Huh-7 replicon cells, 48 hours",< 4.00
same,pEC50,[2]; 48 hours,6.99
CCC(CC)COC(=O)[C@H](C)NP(=O)(N[C@@H](C)C(=O)OCC(CC)CC)OC[C@@]1(C#N)O[C@@H](c2ccc3c(N)ncnn23)[C@H](O)[C@@H]1O [Example 7],pEC50,RSV strain A2; [8],5.73
same,pEC50,"HRV16; H1-HeLa cells, 96 h, 33° C.; read-out: HRV16 HELA EC50",5.23
same,pEC50,RSV A2; [8],6.58
same,pEC50,DENV2 replicon; [6],4.48
same,pEC50,"[2]; Dengue virus, DENV2, Dendritic cell, 48 hours",< 4.60
"CCCCOC(=O)[C@H](C)N[P@](=O)(OC[C@@]1(C#N)O[C@@H](c2ccc3c(N)ncnn23)[C@H](O)[C@@H]1O)Oc1ccccc1 [Example 54, butyl ((S)-(((2R,3S,4R,5S)-5-(4-aminopyrrolo[2,1-f][1,2,4]triazin-7-yl)-2-cyano-3,4-dihydroxytetrahydrofuran-2-yl)methoxy)(phenoxy)phosphoryl)-L-alaninate]",pEC50,HRV16; [4],6.42
same,pEC50,RSV A2; [5],6.98
same,pEC50,[1]; [6],5.59
same,pEC50,DENV2 replicon; [9],5.13
same,pEC50,[2]; [7],6.09
CC1CCC(OC(=O)C(C)NP(=O)(OCC2(C#N)OC(c3ccc4c(N)ncnn34)C(O)C2O)Oc2ccccc2)CC1 (stereo not drawn) [Example 143],pEC50,RSV strain A2,6.85
same,pEC50,"RSV A strain A2; HAE cells, RSV A2, 3 days",6.80
same,pEC50,RSV A2,7.28
"CCCCCCCCCCCC(=O)Nc1ncnn2c([C@@H]3O[C@](C#N)(CO[P@@](=O)(N[C@@H](C)C(=O)OC4CCCCC4)Oc4ccccc4)[C@@H](O)[C@H]3O)ccc12 [Example 232, Cyclohexyl ((S)-(((2R,3S,4R,5S)-2-cyano-5-(4-dodecanamidopyrrolo[2,1-f][1,2,4]triazin-7-yl)-3,4-dihydroxytetrahydrofuran-2-yl)methoxy)(phenoxy)phosphoryl)-L-alaninate]",pEC50,RSV strain A2; [3],7.21
same,pEC50,HRV16; [4],6.32
same,pEC50,RSV A2; [5],7.01
same,pEC50,DENV2 replicon; [9],5.27
same,pEC50,[2]; [7],5.96
